Data: US20220152077A1 (THE UNIVERSITY OF WARWICK, priority 2019, published 2022)
“Also recorded” adds a separate entry of the source. Where two headings read alike, the source gives them in different places.

Assays:
[1] = test system: synaptic transmission in the hippocampus; experiment: Extracellular fEPSP recording in hippocampal slices (synaptic transmission); format: cell-based, rat
Method: (§1) Preparation of hippocampal slices: Sagittal slices of hippocampus (300-400 μm) were prepared from male Sprague Dawley rats, at postnatal days 12 to 20. Rats were kept on a 12-hour light-dark cycle with slices made 90 minutes after entering the light cycle. […] The brain was removed, cut down the mid line and the two sides of the brain stuck down to a metal base plate. […] Slices were stored at 34° C. for 1 to 6 hours in aCSF (1 mM MgCl2, 2 mM CaCl2) before use.
Extracellular recording: A slice was transferred to the recording chamber, submerged in aCSF and perfused at 4 to 6 mL/min (32° C.). The slice was placed on a grid allowing perfusion above and below the tissue and all tubing was gas tight (to prevent loss of oxygen). For extracellular recording, an aCSF filled microelectrode was placed on the surface of stratum radiatum in CA1. […] For fEPSPs a 10 to 20 minute baseline was recorded at a stimulus intensity that gave 40 to 50% of the maximal response. […] For fEPSP slope, a 1 ms linear region after the fibre volley was measured. Extracellular recordings were made independently on two electrophysiology rigs.
Statistical significance was tested using the unpaired t-test and one-way and two-way ANOVAs with Bonferroni correction for multiple comparisons.
(§2) Data Analysis. […] Statistical significance was tested as indicated in the text using paired or unpaired t-tests or one-way or two-way ANOVAs with repeated measures (RM) as appropriate. Bonferroni corrections for multiple comparisons were performed. All in vitro cell signalling assay data was analysed using Prism 7.0e (Graphpad software, San Diego, Calif.), with all concentration-response curves being fitted using a 3 parameter logistic equation to calculate response range and IC50. All cAMP data was normalised to a forskolin concentration-response curve ran in parallel to each assay. […] Radioligand displacement curves were fitted to the one-site competition binding equation yielding log Ki values. […] To determine the extent of ligand-induced recruitment of β-arrestin2-YFP to either the A1R or A3R, the BRET signal was calculated by subtracting the 530 nm/450 nm emission for vehicle-treated cells from ligand-treated cells (ligand-induced ΔBRET). ΔBRET for each concentration at 5 minutes (maximum response) was used to produce concentration-response curves.

Goa = format: cell-based, human; settings: PTX-treated cells
Method: Cells were then incubated for 24 hours before addition of 100 ng/ml PTX, to inhibit activity of endogenous Gαi/o, and then incubated for a further 16-18 hours. Transfected cells were then assayed as per cAMP inhibition experiments, but co-stimulated with agonist and 100 nM forskolin.
as §2

[2] = test system: seizure activity induced in hippocampal slices; experiment: Seizure model in hippocampal slices (no added Mg2+, 6 mM K+ aCSF); format: cell-based, rat; settings: adenosine 20-100 μM, NECA 300 nM, CPA 300 nM, BnOCPA 300 nM to 1 μM
Method: as §1
Seizure model: Seizure activity was induced in hippocampal slices using aCSF which contained no added Mg^2+ and with the total K^+ concentration increased to 6 mM with KCl. Removal of extracellular Mg^2+ facilitates NMDA receptor activation producing long lasting EPSPS, which can sum together to produce tonic activation. Increasing the extracellular concentration of K^+ depolarises neurons leading to firing and release of glutamate to sustain activity. Both the increase in K^+ concentration and removal of Mg^2+ are required to produce spontaneous activity in hippocampal slices. Spontaneous activity was measured with an aCSF-filled microelectrode placed within stratum radiatum in CA1.

isolated frog heart = experiment: Frog heart preparation, heart rate; parameters: species or system Xenopus leavis
Method: Frog heart preparation: Xenopus […] frogs (young adult males) were supplied from Portsmouth Xenopus Resource Centre. Frogs were euthanized with MS222 (0.2% at a pH of 7), decapitated and pithed. The animals were dissected to reveal the heart and the pericardium carefully removed. Heart contractions were measured with a force transducer (AD instruments). Heart rate was acquired via a PowerLab […] (AD instruments) controlled by LabChart 7 (AD instruments). The heart was regularly washed with ringer and drugs were applied directly to the heart.

[3] = test system: membrane potential of pyramidal cells; experiment: Whole cell current clamp recording of membrane potential, CA1 pyramidal cells; format: cell-based, rat
Method: as §1
Whole cell patch clamp recording from hippocampal pyramidal cells: A slice was transferred to the recording chamber and perfused at 3 mL/min with aCSF at 32±0.5° C. Slices were visualised using IR-DIC optics with an Olympus BX151W microscope (Scientifica) and a CCD camera (Hitachi). […] Voltage and current recordings were obtained using an Axon Multiclamp 700B amplifier (Molecular Devices, USA) and digitised at 20 KHz. Data acquisition and analysis was performed using Pclamp 10 (Molecular Devices). For voltage clamp experiments, CA1 pyramidal cells were held at −60 mV. Peptides to interfere with G protein signalling were introduced via the patch pipette into the recorded cell.

[4] = test system: urethane-anaesthetised, spontaneously breathing adult rats; experiment: In vivo anaesthetised rat preparation, heart rate and mean arterial blood pressure
[5] = test system: adenosine-induced outward current in CA1 pyramidal cells; experiment: Whole-cell voltage clamp, adenosine-induced outward current with G protein interfering peptides; format: cell-based, rat; settings: for mean amplitude of the adenosine-induced outward current with intracellular peptide: peptide 100 μM via patch pipette
Method: Whole cell patch clamp recording from hippocampal pyramidal cells: A slice was transferred to the recording chamber and perfused at 3 mL/min with aCSF at 32±0.5° C. Slices were visualised using IR-DIC optics with an Olympus BX151W microscope (Scientifica) and a CCD camera (Hitachi). Whole-cell current clamp recordings were made from pyramidal cells in area CA1 of the hippocampus using patch pipettes (5 to 10 MΩ) manufactured from thick walled glass (Harvard Apparatus, Edenbridge UK) and containing (mM): potassium gluconate 135, NaCl 7, HEPES 10, EGTA 0.5, phosphocreatine 10, MgATP 2, NaGTP 0.3 and biocytin 1 mg/mL (290 mOSM, pH 7.2). Voltage and current recordings were obtained using an Axon Multiclamp 700B amplifier (Molecular Devices, USA) and digitised at 20 KHz. Data acquisition and analysis was performed using Pclamp 10 (Molecular Devices). For voltage clamp experiments, CA1 pyramidal cells were held at −60 mV. Peptides to interfere with G protein signalling were introduced via the patch pipette into the recorded cell. […].
Drugs: Drugs were made up as stock solutions (1 to 10 mM) and then diluted in aCSF on the day of use. Compounds were dissolved in dimethyl-sulphoxide (DMSO, 0.01% final concentration of DMSO). […]. Peptides for interfering with G protein signalling were obtained from Hello Bio (Bristol, UK) and were based on published sequences (Varani et al., Adv Exp Med Biol 1051, 193-232 (2017)). […] The scrambled version was […]. […] Peptides were made up as stock solutions (2 mM) and stored at −20° C. The stock solutions were dissolved in filtered intracellular solution just before use.

[6] = rat hippocampal slices, CA1, read-out: IC50, inhibition of synaptic transmission (fEPSP slope)
[7] = IV, adenosine 1 mg·kg^−1, BnOCPA 10 μg·kg^−1, CPA 420 ng·kg^−1

For `Cn1c(=O)c2[nH]c(C3CCCC3)nc2n(C)c1=O` [8-CPT, 8-cyclopentyltheophylline], the “effect of the A1 receptor antagonist on agonist inhibition of synaptic transmission” value ([1]; 8-CPT 2 μM (adenosine) or 4 μM (BnOCPA)) was “reversed the inhibition of synaptic transmission caused by adenosine”.

For `OC[C@H]1O[C@@H](n2cnc3c(N[C@@H]4CCC[C@H]4O)ncnc32)[C@H](O)[C@@H]1O` [HOCPA], the “activation of / coupling to Goa” value (Goa) was “coupled to a range of Gi/o subunits, and in particular Goa”.

With `CCNC(=O)[C@H]1O[C@@H](n2cnc3c(N)ncnc32)[C@H](O)[C@@H]1O` [NECA, 5′-(N-Ethylcarboxamido) adenosine] the IC50 [1, 6] was 0.0083 ± 0.003 µM, the “effect on seizure activity” value [2] was “rapidly and reversibly abolished seizure activity; also recorded: blocks seizure activity in a reversible manner” and the “activation of / coupling to Goa” value (Goa) was “coupled to a range of Gi/o subunits, and in particular Goa”.

In the case of `Nc1ncnc2c1ncn2[C@@H]1O[C@H](CO)[C@@H](O)[C@H]1O` [adenosine], the “reduction of heart rate” value (isolated frog heart; adenosine 30 μM) is reported as “about 15%”, the “reduction of heart rate by adenosine following BnOCPA” value (isolated frog heart; adenosine 30 μM after BnOCPA 300 nM) is reported as 0.27±0.2 BPM and the “reduction / change of heart rate” value (isolated frog heart; adenosine 30 μM, BnOCPA 300 nM, CPA) is reported as 6.25±0.6 BPM. The “heart rate after application” value (isolated frog heart; adenosine 30 μM, from 42±1.2 BPM) was 35.5±1.2 BPM, the IC50 ([1]; Rattus norvegicus, read-out: IC50, inhibition of synaptic transmission by adenosine with 8-CPT, in the presence of 2 μM 8-CPT) was 125 ± 10 µM and the IC50 [1, 6] was 20 ± 4.3 µM. The “effect on seizure activity” value [2] was “reversibly blocks seizure activity”, the “effect on seizure activity” value ([2]; listed as Adenosine) was “rapidly and reversibly abolished seizure activity” and the “membrane potential after agonist” value ([3]; adenosine 100 μM, CPA 300 nM) was −74.1±1.5 mV. For the same compound, the “mean change of membrane potential (hyperpolarisation)” value ([3]; adenosine 100 μM, CPA 300 nM, BnOCPA 300 nM-1 μM) was −4.7±0.5 mV, the “MAP after adenosine co-injected with BnOCPA” value ([4]; IV co-injection) was 51±4 mmHg and the “change of HR by adenosine co-injected with BnOCPA” value ([4]; IV co-injection) was “about 12%”. The “mean change of HR by adenosine co-injected with BnOCPA” value ([4]; IV co-injection) was 51±4 BPM, the “change of HR” value [4, 7] was “about 66%” and the “heart rate (HR) after injection” value [4, 7] was 147±12 BPM. For the same compound, the “mean arterial blood pressure (MAP) after injection” value [4, 7] was 46±4 mmHg, the “reduction of MAP” value ([4]; adenosine IV) was “about 47%” and the “effect on HR and BP” value ([4]; single anaesthetised rat preparation, IV) was “HR and BP depression”. The “mean amplitude of the outward current induced by adenosine” value ([5]; adenosine 10 μM, control conditions, held at −60 mV) was 43.9±3.1 pA.

In the case of `NCC(CC(=O)O)c1ccc(Cl)cc1` (stereo not drawn) [baclofen], the “mean hyperpolarisation produced by baclofen in the presence of BnOCPA” value ([3]; BnOCPA 300 nM) is reported as 6.5±0.43 mV, the “membrane potential after baclofen in the presence of BnOCPA (example)” value ([3]; baclofen (10 µM), BnOCPA 300 nM, from −67 mV) is reported as −74 mV and the “mean hyperpolarisation produced by baclofen in control conditions” value ([3]; without BnOCPA) is reported as 6.3±0.76 mV.

For “Goa interfering peptide: peptide interfering with G protein signalling, sequence MGIANNLRGCGLY”, the “effect of peptide on adenosine-induced outward current” value (from here on “effect of peptide”) [5] was “caused a significant attenuation of the adenosine-induced outward current” and the “mean amplitude of the adenosine-induced outward current with intracellular peptide” value (“mean amplitude … with intracellular peptide” below) ([5]; adenosine 10 μM) was 20.9±3.6 pA.

“Gob interfering peptide: peptide interfering with G protein signalling, sequence MGIQNNLKYIGIC” was tested, and the “effect of peptide” value [5] was “neither the scrambled peptide nor the Gob peptide had any effect on current amplitude” and the “mean amplitude … with intracellular peptide” value ([5]; adenosine 10 μM) was 37.4±2.2 pA.

“scrambled peptide: scrambled version of the Goa peptide, sequence LNRGNAYLCIGMG” was tested, and the “effect of peptide” value [5] was “neither the scrambled peptide nor the Gob peptide had any effect on current amplitude” and the “mean amplitude … with intracellular peptide” value ([5]; adenosine 10 μM) was 43.4±2.4 pA.
